One data set concerns Beagle dogs. The following applies: dog, in vivo, iv, 200 mg/kg. The text has this:
2. Toxicity Test in Beagle Dogs (Non-Rodent) After Intravenous Administration of L-ornidazole for Two Weeks
Beagle dogs, 4 dogs in each group with half females and half males, were divided into L-, D-, and racemic ornidazole groups.

The nature of data set [1]: In vivo pharmacokinetics in Beagle dogs. The protocol:
The clinical dose of ornidazole is 500 mg for human. By calculating, based on body surface area, the pharmacokinetic experimental dose in Beagle dogs was 13 mg/kg in vivo. Six adult beagle dogs (half males and half females, body weight of 9˜11.5 kg) were randomly divided into three groups. According to crossover design, intravenous injection of L-, D-, and racemic ornidazole were administered in turn to each dog every other week (with one week washout period in between). 2 ml of blood was collected from the vein located at the forelimb of the dogs before drug administration and 0.083, 0.5, 1.0, 2.0, 4.0, 6.0, 8.0, 12.0, 16.0, 24.0 hours after drug administration, which was then placed in the heparinized tube, followed by centrifugation to obtain the plasma. Plasma concentration of drug was determined by HPLC. Pharmacokinetics parameters were estimated using the non-compartmental models. The corresponding pharmacokinetics parameters were obtained by BAPP2.0 using the data of plasma concentration of blood with time obtained above.

In data set [2] the test system is mice. Briefly: Effects on spontaneous activities in mice. Conditions: for spontaneous activity compared with the vehicle control group: recorded at 0.5, 1, 2, 3 and 4 hours. It is filed as in vivo. The protocol:
Chlorpromazine was administered at dose of […] in the positive control group, and the same volume of propylene glycol containing 0.9% sodium chloride injection was administered in the vehicle control group. Spontaneous activity was recorded at 0.5, 1, 2, 3 and 4 hours after drug administration. The injection volume was 0.2 ml/10 g and the administration rate was 0.2 ml/10 sec.

Data set [3] relates to mice. As to the kind of experiment: Hypnotic effect of intravenous injection in mice (righting reflex). It is filed as in vivo. Conditions: mice, within 30 minutes. Here is the method:
White mice, half males and half females, fasted for eight hours. The disappearance of righting reflex in mice was observed. The number of animals who lost their righting reflex was recorded in 30 minutes after drug administration.

Data set [4] deals with mice. As to the kind of experiment: Effect on the coordination of balancing in mice. It is filed as in vivo. The following applies: intravenous injection. The protocol:
Experiments were conducted in 9 administration groups, L-, D- and racemic ornidazole were administered to them at doses of 40, 80 and 160 mg/kg. Positive control group received chlorpromazine at a dose of 3 mg/kg.

The test system of data set [5] is mice. Briefly: Effect on the hypnotic effect induced by sodium thiopental in mice. The following applies: 40 mg/kg sodium thiopental i.p. 30 minutes later.
Experimental: The same volume of 0.9% sodium chloride injection containing propylene glycol was administered in the vehicle control group. 30 minute after drug administration, 40 mg/kg of sodium thiopental was administered to mice by intraperitoneal injection. The time for the loss of righting reflex and the time for the recovery were recorded. The injection volume was 0.2 ml/10 g, the administration rate was 0.2 ml/10 sec.
Where [6] appears, read: beagle dogs, individual intravenous dose 13 mg/kg, plasma.

From patent publication US8530507B2, “Use of levo-ornidazole in the preparation of anti-anaerobic bacteria infection drugs” (priority 2005, dated 2013) come the findings set out here.

Take `Cc1ncc([N+](=O)[O-])n1C[C@@H](O)CCl` [D-ornidazole]: in the data set with Beagle dogs, the “food intake and body weight” value was “significantly inhibited”; the “histological examination of organs” value is given as “significant pathological changes were not observed”; the “manifestations (toxicity and side effects)” value is “drooling, vomiting, myasthenia of limbs, astasia, hyperspasmia”; the “number of Purkinje cells in cerebellum (histological examination)” value is “significantly reduced”. Further, in data set [1] (setting [6]), the “AUC0-t (area under curve)” value was 66570 ± 10510 ng·h/mL, the “Cl (clearance)” value is 1.59 ± 0.28 L/h, the “MRT (mean retention time of drugs)” value is 8.74 ± 3.30 h and the “Vβ (elimination volume of distribution)” value was 13.59 ± 4.99 L. Further, the “in vivo transformation of enantiomers between L- and D-ornidazole” value in data set [1] (dog, in vivo, iv) was “not occurred”. Besides, the “t1/2 (half life)” value in data set [1] (dog, in vivo, iv, 13 mg/kg) amounted to 6.06 ± 2.29 h. Further, in the data set with mice [2] (40 mg/kg intravenous), the “recovery of spontaneous activity” value is recorded as “gradually become normal after 3 hours”; the “spontaneous activity compared with the vehicle control group” value is “reduced significantly at 0.5, 1 and 2 hours”. In the data set with mice [2] (80 mg/kg intravenous), the “recovery of spontaneous activity” value is on record as “not recovered in 4 hours”; the “spontaneous activity compared with the vehicle control group” value was “reduced significantly at 0.5, 1, 2, 3 and 4 hours”. For the same compound, in the data set on mice [2] (160 mg/kg intravenous), the “recovery of spontaneous activity” value is reported as “not recovered in 4 hours”; the “spontaneous activity compared with the vehicle control group” value is “reduced significantly at 0.5, 1, 2, 3 and 4 hours”. The “number of mice with loss in righting reflex” value in the data set with mice [3] (individual dose of 160 mg/kg intravenous) came to 10 mice. The “loss in righting reflex” value in the data set with mice [3] (individual dose of 40 or 80 mg/kg intravenous) is “No loss in righting reflex”. The “effect on the coordination and balance (number of falling animals)” value in the data set with mice [4] (160 mg/kg) was “significant effect”. In the data set on mice [4] (doses of 40 and 80 mg/kg), the “effect on the coordination and balance, compared with the vehicle control group” value is “no significant effect”. Moreover, in the data set on mice [5] (40 mg/kg intravenous), the “duration of sleeping induced by sodium thiopental, compared with the vehicle control group” value was “significantly extended” and the “sleep latency induced by sodium thiopental, compared with the vehicle control group” value is given as “significantly reduced”. In the data set on mice [5] (80 mg/kg intravenous), the “duration of sleeping induced by sodium thiopental, compared with the vehicle control group” value is “significantly extended” and the “sleep latency induced by sodium thiopental, compared with the vehicle control group” value is “significantly reduced”.
